Laboratory results taken from ChEMBL document CHEMBL1201862, “PubChem BioAssay data set” (2004).
Activity calls are given as the source filed them.

Key:
[1] = molecular target: T1, Zinc finger protein mex-5 (Caenorhabditis elegans, UniProt Q9XUB2); assay: potency of MEX-5 RNA-binding blockers – biochemical, C. elegans, fluorescence polarization, dose response (AID 1960)
T1 sequence (Q9XUB2 whole entry): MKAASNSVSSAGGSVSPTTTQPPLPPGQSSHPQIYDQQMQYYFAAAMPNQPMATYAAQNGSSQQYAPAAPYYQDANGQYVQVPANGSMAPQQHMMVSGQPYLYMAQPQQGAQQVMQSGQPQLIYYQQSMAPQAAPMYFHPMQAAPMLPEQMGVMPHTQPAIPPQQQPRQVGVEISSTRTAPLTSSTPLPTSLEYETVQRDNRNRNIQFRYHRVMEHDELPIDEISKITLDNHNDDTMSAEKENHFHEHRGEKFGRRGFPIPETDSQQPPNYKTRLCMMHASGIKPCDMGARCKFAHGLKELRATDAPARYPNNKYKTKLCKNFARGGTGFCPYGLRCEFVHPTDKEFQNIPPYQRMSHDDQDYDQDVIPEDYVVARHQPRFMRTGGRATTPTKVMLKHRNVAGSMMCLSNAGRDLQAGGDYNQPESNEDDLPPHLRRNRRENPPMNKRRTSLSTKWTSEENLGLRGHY

[2] = molecular target: T2, Heat shock factor protein 1 (Mus musculus, UniProt P38532); assay: decrease of HSF1-responsive luciferase luminescence – cell-based, NIH3T3, dose retest, confirmation (AID 2382); type: functional;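 note: NIH3T3 fibroblasts with HSF1-driven luciferase reporter stressed by proteasome inhibitor MG132; luminescence from HSF1-driven luciferase expression after 8 hours of MG132 stress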
T2 sequence (P38532 whole entry): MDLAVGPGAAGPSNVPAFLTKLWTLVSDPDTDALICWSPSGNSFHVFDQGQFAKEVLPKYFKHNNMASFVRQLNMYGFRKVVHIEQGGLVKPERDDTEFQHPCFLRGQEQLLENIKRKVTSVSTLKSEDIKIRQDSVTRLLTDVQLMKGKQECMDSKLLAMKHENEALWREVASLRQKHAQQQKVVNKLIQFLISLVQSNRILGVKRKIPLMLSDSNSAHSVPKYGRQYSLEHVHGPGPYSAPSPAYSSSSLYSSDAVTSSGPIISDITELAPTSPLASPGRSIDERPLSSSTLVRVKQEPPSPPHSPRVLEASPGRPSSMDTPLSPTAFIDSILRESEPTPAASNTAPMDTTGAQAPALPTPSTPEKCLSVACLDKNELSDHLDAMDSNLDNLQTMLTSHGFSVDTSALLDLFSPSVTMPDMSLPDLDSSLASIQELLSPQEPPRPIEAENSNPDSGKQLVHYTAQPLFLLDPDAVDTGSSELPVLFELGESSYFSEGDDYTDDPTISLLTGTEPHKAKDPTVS

[3] = activation of miR-122 Renilla sensor silencing – cell-based, Huh7 psiCHECK-miR122, Renilla luciferase, cherry-picked, dose response (AID 651956); type: functional;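 note: huh7 hepatoma cells stably carrying a psiCHECK-2 miR-122 sensor plasmid; renilla luciferase signal reporting endogenous miR-122 activity after 48 h compound exposure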
[4] = general mammalian cell viability loss – inhibitor set, cherry-pick, set 2, cytotoxicity control for miR-122 modulator project, dose response (AID 720697); type: functional, cell-based
[5] = general mammalian cell viability loss – activator set, cherry-pick, cytotoxicity control for miR-122 modulator project, dose response (AID 720690); type: functional, cell-based;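 note: HEK293T human cells scored for general mammalian cytotoxicity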
[6] = molecular target: G-protein coupled receptor 55 (Homo sapiens, UniProt Q9Y2T6); assay: selective activators of receptor GPR55 – imaging, U2OS cells, beta-arrestin-GFP redistribution, primary screen (AID 1961); type: functional
G-protein coupled receptor 55, sequence (Q9Y2T6 whole entry): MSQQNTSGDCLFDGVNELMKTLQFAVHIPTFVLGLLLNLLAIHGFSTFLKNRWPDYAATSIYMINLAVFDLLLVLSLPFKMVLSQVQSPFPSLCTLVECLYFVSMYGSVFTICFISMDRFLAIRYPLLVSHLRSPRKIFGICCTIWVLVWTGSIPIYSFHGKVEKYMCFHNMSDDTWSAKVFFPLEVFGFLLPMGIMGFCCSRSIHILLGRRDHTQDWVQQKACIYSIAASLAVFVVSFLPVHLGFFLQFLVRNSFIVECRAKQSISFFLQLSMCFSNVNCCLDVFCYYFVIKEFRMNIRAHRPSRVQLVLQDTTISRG

[7] = molecular target: T3, RNA-editing ligase 1, mitochondrial (Trypanosoma brucei brucei, UniProt P86926); assay: inhibition of trypanosome RNA editing ligase – biochemical, fluorescence, Trypanosoma brucei, dose response (AID 1117295); type: functional
T3 sequence (P86926 whole entry): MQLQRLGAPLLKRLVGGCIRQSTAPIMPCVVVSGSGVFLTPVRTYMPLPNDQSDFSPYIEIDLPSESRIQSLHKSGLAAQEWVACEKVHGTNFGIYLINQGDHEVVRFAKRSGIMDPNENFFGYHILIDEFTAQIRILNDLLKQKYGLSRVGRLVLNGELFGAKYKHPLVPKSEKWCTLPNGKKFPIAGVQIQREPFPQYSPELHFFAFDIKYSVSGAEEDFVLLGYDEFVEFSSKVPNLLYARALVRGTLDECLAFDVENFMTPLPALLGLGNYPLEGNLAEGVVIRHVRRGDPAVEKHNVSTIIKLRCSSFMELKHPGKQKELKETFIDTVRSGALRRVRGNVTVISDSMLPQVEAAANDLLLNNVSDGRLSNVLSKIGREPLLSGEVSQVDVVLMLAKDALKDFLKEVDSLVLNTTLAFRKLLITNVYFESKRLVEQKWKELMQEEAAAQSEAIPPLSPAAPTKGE

[8] = Luminescence Cell-Based Dose Retest to Confirm Inhibitors of Cancer Stem Cells. [Related pubchem assays (depositor defined):AID2717, AID2721]; type: functional; details: Homo sapiens
[9] = molecular target: T4, RNA-binding protein pos-1 (Caenorhabditis elegans, UniProt G5EF15); assay: disruptors of C. elegans POS-1 RNA interaction – biochemical, fluorescence polarization, dose response (AID 1964);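 note: purified POS-1 fused to maltose binding protein made in E. coli; potency of compounds blocking POS-1 binding to fluorescent RNA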
T4 sequence (G5EF15 whole entry): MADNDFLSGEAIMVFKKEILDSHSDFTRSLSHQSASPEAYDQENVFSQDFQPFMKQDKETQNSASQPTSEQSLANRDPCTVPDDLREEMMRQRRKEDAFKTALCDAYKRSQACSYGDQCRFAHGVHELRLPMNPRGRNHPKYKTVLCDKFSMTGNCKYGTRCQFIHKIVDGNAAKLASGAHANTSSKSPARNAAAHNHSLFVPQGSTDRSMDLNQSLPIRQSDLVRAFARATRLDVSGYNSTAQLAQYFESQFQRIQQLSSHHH

Keap1/Nrf2 = Keap1/Nrf2 (Homo sapiens, UniProt Q14145); assay: disruptors of Keap1 binding to Nrf2 peptide – biochemical, fluorescence polarization, cherry-picked samples, dose response (AID 588683)
Keap1/Nrf2, sequence (Q16236 whole entry): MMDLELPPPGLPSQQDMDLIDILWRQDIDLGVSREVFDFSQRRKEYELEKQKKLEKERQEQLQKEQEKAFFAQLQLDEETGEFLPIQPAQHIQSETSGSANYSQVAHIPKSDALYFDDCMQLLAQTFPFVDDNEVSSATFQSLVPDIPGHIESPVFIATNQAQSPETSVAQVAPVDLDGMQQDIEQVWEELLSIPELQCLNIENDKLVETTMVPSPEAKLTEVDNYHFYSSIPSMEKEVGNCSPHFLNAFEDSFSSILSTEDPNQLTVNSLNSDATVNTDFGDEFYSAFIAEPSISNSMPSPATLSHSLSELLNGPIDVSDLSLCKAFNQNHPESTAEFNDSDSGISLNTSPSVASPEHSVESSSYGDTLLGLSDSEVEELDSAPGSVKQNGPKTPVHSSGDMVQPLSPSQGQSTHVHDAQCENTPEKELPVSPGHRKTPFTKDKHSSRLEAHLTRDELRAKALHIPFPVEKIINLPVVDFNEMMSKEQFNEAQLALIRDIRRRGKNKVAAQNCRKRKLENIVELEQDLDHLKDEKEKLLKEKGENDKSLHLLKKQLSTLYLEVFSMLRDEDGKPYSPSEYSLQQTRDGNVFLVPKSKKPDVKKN
Keap1/Nrf2, sequence (Q14145 whole entry): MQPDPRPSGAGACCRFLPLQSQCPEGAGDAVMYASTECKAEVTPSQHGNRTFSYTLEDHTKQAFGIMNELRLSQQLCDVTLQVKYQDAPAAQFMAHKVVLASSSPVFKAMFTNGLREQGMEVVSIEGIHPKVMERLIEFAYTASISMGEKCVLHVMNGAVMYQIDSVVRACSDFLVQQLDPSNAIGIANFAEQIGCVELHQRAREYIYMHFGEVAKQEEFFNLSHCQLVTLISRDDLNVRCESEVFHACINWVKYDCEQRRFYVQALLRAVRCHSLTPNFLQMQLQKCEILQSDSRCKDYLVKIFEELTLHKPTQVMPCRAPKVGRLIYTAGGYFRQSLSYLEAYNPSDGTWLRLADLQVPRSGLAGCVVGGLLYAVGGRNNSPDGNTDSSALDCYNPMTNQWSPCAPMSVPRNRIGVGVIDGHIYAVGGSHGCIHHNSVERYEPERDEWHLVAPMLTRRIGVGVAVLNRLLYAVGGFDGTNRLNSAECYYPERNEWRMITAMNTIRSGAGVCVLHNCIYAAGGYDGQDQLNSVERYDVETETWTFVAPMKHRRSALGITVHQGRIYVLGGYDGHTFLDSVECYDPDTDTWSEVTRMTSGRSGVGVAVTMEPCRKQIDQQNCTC

ORF 73 = molecular target: T5, ORF 73 (Human herpesvirus 8, UniProt O40947); assay: KSHV LANA DNA-binding disruption – biochemical, fluorescence polarization, cherry-picked samples, dose response (AID 504725); set-up: species or system Human gammaherpesvirus 8;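 note: fluorescence polarization of a labeled DNA duplex reporting LANA DNA binding; potency is for inhibitors that block LANA binding to the DNA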
T5 sequence (O40947 whole entry): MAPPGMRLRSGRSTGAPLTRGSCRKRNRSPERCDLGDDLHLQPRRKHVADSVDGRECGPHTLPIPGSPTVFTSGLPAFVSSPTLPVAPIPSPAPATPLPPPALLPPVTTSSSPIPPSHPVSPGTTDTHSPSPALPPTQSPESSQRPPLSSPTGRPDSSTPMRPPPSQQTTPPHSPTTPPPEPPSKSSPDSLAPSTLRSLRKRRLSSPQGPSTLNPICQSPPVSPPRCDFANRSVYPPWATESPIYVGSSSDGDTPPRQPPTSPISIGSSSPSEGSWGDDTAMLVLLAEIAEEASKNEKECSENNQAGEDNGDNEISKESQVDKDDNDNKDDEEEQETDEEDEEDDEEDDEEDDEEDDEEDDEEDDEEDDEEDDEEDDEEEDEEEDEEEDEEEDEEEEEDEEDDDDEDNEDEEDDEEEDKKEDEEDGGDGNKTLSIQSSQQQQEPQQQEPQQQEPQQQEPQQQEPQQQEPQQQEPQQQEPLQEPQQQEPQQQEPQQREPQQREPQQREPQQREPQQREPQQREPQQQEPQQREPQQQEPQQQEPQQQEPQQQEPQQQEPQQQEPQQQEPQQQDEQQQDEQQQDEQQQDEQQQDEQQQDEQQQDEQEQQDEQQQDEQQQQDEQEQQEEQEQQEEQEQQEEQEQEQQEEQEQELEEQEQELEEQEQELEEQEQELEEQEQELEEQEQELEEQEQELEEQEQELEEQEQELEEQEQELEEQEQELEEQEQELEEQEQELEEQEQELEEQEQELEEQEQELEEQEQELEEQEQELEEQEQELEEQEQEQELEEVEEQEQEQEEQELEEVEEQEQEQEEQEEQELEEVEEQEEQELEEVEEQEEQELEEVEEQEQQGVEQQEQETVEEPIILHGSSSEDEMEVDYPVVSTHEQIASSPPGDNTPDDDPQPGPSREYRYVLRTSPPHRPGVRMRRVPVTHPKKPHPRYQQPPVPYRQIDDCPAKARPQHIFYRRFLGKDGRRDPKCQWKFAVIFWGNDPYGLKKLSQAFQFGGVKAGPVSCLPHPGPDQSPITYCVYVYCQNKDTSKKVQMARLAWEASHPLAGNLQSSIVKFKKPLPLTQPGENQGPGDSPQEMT

HeLa = assay: viability loss in HeLa cells – cell-based, 24 h, cherry-picked samples, cytotoxicity control, dose response (AID 504726); type: functional; details: Homo sapiens;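 note: potency for cytotoxicity as loss of luminescence signal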
Caspase-6 = molecular target: T6, Caspase-6 (Homo sapiens, UniProt P55212); assay: inhibition of CASP6 peptide cleavage – biochemical, VEID-R110 fluorescence, cherry-pick, dose response (AID 720632)
T6 sequence (P55212 whole entry): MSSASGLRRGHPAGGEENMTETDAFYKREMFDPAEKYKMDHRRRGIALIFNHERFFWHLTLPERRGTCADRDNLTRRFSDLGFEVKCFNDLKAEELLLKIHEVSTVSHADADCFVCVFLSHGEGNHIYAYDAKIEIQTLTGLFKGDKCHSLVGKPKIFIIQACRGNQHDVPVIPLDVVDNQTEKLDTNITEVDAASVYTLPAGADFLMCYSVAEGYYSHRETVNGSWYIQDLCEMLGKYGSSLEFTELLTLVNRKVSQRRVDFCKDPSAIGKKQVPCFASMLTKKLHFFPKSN

HEK293 [10] = assay: membrane integrity loss in HEK cells – cell-based, fluorescence, cytotoxicity control for IDE activator project, dose response (AID 588440); type: functional; details: Homo sapiens;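 note: cytotoxicity by LDH release measuring loss of membrane integrity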
HEK293 [11] = assay: optical interference in Abeta FP readout, dose response, artefact control for IDE activator project, biochemical, fluorescence polarization (AID 588442); type: functional, cell-based; details: Homo sapiens
Insulin-degrading enzyme [12] = molecular target: T7, Insulin-degrading enzyme (Homo sapiens, UniProt P14735); assay: cellular IDE activation of Abeta substrate cleavage – fluorescence polarization, HEK cells, dose response (AID 588439); type: functional, cell-based
T7 sequence (P14735 whole entry): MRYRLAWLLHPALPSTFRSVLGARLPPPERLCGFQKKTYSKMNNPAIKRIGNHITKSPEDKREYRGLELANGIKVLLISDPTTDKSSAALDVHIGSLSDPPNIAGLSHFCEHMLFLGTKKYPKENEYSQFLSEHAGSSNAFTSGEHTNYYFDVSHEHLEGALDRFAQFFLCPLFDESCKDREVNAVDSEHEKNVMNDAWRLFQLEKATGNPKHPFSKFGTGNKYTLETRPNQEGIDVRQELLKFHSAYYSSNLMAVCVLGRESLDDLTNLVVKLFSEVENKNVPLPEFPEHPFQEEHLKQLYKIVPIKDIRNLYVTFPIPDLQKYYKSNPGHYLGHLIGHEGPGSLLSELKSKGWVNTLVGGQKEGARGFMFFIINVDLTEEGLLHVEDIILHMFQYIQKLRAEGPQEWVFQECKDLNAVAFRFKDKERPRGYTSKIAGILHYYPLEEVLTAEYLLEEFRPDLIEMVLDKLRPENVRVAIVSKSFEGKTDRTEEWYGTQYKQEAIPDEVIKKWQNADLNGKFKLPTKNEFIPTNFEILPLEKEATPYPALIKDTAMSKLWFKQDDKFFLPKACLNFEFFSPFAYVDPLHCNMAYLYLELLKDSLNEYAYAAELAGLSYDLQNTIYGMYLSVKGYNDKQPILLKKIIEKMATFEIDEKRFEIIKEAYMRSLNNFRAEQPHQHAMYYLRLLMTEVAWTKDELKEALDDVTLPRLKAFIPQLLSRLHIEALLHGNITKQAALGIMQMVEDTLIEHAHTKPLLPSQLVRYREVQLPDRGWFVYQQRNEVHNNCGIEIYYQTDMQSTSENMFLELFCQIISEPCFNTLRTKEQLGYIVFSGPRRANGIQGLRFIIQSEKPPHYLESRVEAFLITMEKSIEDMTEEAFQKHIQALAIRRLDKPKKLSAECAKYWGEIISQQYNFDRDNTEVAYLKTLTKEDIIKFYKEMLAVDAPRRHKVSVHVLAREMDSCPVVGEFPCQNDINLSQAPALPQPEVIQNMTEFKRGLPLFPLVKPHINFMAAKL

[13] = molecular target: T8, Small ubiquitin-related modifier 2 (Homo sapiens, UniProt P61956); assay: SUMO2 binding disruption by SUMO1 hits – biochemical, FRET, human SUMO2, uHTS hits, selectivity assay for SUMO1 interaction inhibitor project, dose response (AID 624384); type: functional; details: read-out: IC50_Mean
T8 sequence (P61956 whole entry): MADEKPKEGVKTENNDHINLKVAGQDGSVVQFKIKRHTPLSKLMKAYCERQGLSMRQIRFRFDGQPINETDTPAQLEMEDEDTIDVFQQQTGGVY

[14] = molecular target: Eukaryotic translation initiation factor 4E (Mus musculus, UniProt P63073); assay: blockers of eIF4G binding by eIF4E – biochemical, TR-FRET, dose response (AID 855); type: functional;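 note: potency for disrupting eIF4E binding to eIF4GI seen as loss of FRET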
Eukaryotic translation initiation factor 4E, sequence (P63073 whole entry): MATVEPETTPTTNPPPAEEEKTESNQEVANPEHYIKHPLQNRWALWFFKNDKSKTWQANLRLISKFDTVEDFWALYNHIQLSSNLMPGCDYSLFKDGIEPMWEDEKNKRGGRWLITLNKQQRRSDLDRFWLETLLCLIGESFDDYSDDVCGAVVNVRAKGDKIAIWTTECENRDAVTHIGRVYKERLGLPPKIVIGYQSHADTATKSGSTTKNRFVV

[15] = molecular target: T8, Small ubiquitin-related modifier 2; assay: disruption of SUMO2 interaction with SIM peptide – biochemical, fluorescence polarization, uHTS hits, selectivity assay for SUMO1 interaction inhibitor project, dose response (AID 624385); type: functional; details: read-out: IC50_Mean
Insulin-degrading enzyme [16] = molecular target: T7, Insulin-degrading enzyme; assay: recombinant IDE activation, cell-free – biochemical, fluorescence polarization, counter-screen for IDE activator project, dose response (AID 588681)
[17] = molecular target: T9, Small ubiquitin-related modifier 1 (Homo sapiens, UniProt P63165); assay: SUMO1 protein interaction blockers, potency – biochemical, fluorescence polarization, uHTS hits, dose response (AID 624382); type: functional; details: read-out: IC50_Mean
T9 sequence (P63165 whole entry): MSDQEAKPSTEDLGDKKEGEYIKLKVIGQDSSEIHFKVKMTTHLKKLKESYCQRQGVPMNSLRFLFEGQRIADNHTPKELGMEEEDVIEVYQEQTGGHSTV

[18] = molecular target: T9, Small ubiquitin-related modifier 1; assay: SUMO1 protein-protein binding blockers, potency – biochemical, FRET, dose response (AID 624383); type: functional; details: read-out: IC50_Mean

COc1cc2c(cc1OC)C(c1ccc(-c3ccc(Cl)c(Cl)c3)o1)=NCC2
EC50 [1]: > 300 µM (not active) | EC50 [2]: > 195 µM (not active) | AC50 [3]: 25.7 µM (active) | AC50 [4]: 8.91 µM (active) | AC50 [5]: 9.82 µM (active) | EC50 [6]: > 32 µM (inactive) | IC50 [7]: 35.8 µM (inactive) | AC50 [8]: 4.34 µM (active) | EC50 [9]: > 300 µM (inconclusive)

Cc1cc2nc3c(=O)[nH]c(=O)[nH]c3nc2c([N+](=O)[O-])c1N
AC50 (Keap1/Nrf2): 1.78 µM (active) | AC50 (ORF 73): 3.99 µM (active) | AC50 (HeLa): 150 µM (active) | AC50 (Caspase-6): 4.58 µM (active) | IC50 (HEK293 [10]): > 89.3 µM (inactive) | EC50 (HEK293 [11]): 32.1 µM (inactive) | EC50 (Insulin-degrading enzyme [12]): > 54.7 µM (inactive) | IC50 [13]: > 66 µM (inactive) | IC50 [14]: 50 µM (inactive) | IC50 [15]: 2.48 µM (active) | EC50 (Insulin-degrading enzyme [16]): > 54.7 µM (inactive) | IC50 [17]: 2.33 µM (active) | IC50 [18]: 51.7 µM (inactive)
